Data taken from patent US20060025463A1, “Enoximone sulfoxide enantiomers and their use in the treatment of PDE-III mediated diseases” (priority 2004, published 2006).
Where two headings read alike, the source gives them in different places.

Experiments:
[1] = system: trabeculae from the right ventricular free wall of explanted human hearts; assay: Tension study: peak contractile force of isolated human right ventricular trabeculae in a muscle bath; settings: 37° C., 1.0 Hz field stimulation, increasing concentrations
Protocol: Explanted human hearts were obtained from transplant recipients (n=7) and from nonfailing donor hearts (n=1). After excision, hearts were placed immediately into ice cold Tyrode's solution and aerated with 95% O2 and 5% CO2. Trabeculae between 1-3 mm in width and 7-10 mm in length were excised from the right ventricular free wall. Subsequently trabeculae were mounted in a multi-chamber muscle bath in oxygenated Tyrode's solution at 37° C. The trabeculae were placed under 1 gram of resting tension and a field stimulation of 1.0 Hz. […] Peak contractile forces were recorded at 10 minute intervals for a total of 1½ hours. Following experimentation, trabeculae were frozen in liquid N2.

[2] = target: T1, PDE-III isolated from human platelets (Homo sapiens, UniProt Q14432); assay: PDE-III inhibition assay, [3H]cAMP substrate, [3H]Adenosine quantified; format: biochemical; settings: triplicate at three concentrations over log scale, semi-quantitative
T1 construct: PDE-III isolated from human platelets; from tissue; host or cells: human platelets
Protocol: Enoximone Sulfoxide enantiomer was tested for its ability to inhibit the action of PDE-III isolated from human platelets. The substrate was [^3H]cAMP+cAMP, which is converted by PDE-III to [^3H]Adenosine and then [^3H]Adenosine can be quantified.

[3] = cited from earlier work
[4] = oral, cited from earlier work
[5] = system: men who suffer from ED of psychogenic or organic etiology; settings: clinical studies; cited from earlier work
[6] = system: PDE-III; settings: cited from earlier work

T1 sequence (Q14432 whole entry): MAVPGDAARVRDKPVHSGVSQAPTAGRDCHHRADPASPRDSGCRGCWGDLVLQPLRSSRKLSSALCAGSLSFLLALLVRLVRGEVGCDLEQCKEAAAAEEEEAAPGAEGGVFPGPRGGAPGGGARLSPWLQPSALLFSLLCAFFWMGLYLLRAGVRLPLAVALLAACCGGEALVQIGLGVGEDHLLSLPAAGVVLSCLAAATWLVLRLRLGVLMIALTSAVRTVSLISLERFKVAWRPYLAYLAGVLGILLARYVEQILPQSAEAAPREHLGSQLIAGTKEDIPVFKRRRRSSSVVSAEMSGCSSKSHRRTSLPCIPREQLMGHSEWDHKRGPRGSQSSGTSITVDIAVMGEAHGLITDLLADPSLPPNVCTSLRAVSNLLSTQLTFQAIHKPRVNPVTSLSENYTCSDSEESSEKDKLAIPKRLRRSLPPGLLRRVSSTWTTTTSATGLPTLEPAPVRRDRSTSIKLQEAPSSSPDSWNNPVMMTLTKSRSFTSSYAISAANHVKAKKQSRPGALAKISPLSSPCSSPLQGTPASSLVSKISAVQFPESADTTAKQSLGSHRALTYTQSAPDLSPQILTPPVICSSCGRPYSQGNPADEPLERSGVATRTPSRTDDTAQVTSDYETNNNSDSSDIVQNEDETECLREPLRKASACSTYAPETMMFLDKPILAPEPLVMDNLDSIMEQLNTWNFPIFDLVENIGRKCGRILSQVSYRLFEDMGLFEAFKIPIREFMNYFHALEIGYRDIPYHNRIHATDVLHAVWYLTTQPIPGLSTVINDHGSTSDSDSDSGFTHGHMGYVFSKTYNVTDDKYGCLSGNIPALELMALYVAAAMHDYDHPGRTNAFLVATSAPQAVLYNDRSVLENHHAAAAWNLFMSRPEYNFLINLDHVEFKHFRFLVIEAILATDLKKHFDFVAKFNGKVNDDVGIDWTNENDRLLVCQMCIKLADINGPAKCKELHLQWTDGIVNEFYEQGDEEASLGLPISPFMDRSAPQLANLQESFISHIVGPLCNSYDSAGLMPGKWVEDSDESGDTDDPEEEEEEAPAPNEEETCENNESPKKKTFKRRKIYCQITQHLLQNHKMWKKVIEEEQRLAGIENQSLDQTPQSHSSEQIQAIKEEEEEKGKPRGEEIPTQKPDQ

## Cc1[nH]c(=O)[nH]c1C(=O)c1ccc([S+](C)[O-])cc1.O (single isomer, unassigned) [(R)-(+)-enantiomer, 1,3-Dihydro-4-methyl-5-[(4-methylsulfinyl)-benzoyl]-2H-imidazol-2-one hydrate]
[1]
  peak contractile force (net, T=0 value subtracted): 175 mg of tension

## Cc1[nH]c(=O)[nH]c1C(=O)c1ccc([S@+](C)[O-])cc1 [(S)-(−)-enantiomer, 1,3-Dihydro-4-methyl-5-[(4-methylsulfinyl)-benzoyl]-2H-imidazol-2-one hydrate]
[1]
  peak contractile force (net, T=0 value subtracted): 550 mg of tension
[2]
  IC50: 147 µM

## CSc1ccc(C(=O)c2[nH]c(=O)[nH]c2C)cc1 [Enoximone, 1,3-Dihydro-4-methyl-5-[4-(methylthio)benzoyl]-2H-imidazol-2-one]
[1]
  peak contractile force (net, T=0 value subtracted): 575 mg of tension
[3]; patients with cardiac failure
  mean clearance: about 10 ml/min/kg
  mean half-life: 6 h
[3]; single oral dose of 3 mg/kg
  Bioavailability: about 55%
[4]; 50 mg every 8 hours
  average steady-state plasma concentration: 115 ± 40 ng/mL
[4]; 100 mg every 8 hours
  average steady-state plasma concentration: 190 ± 78 ng/mL

## CC(C)NCC(O)c1ccc(O)c(O)c1 (stereo not drawn) [Isoproterenol]
[1]
  peak contractile force (net, T=0 value subtracted): > 1000 mg of tension

## CCCc1nn(C)c2c(=O)[nH]c(-c3cc(S(=O)(=O)N4CCN(C)CC4)ccc3OCC)nc12 [sildenafil, 5-[2-ethoxy-5-(4-methylpiperazin-1-ylsulphonyl)phenyl]-1-methyl-3-n-propyl-6,7-dihydro-1H-pyrazolo[4,3-d]pyrimidin-7-one]
[5]
  men with improved sexual function: about 70%
[6]
  inhibition of PDE-III: negligible inhibition
